Laboratory results: patent US8426408B2, “Pyrimidine inhibitors of kinases” (AbbVie Inc., priority 2009, dated 2013)

Legend:
[1] = target: T1, Aurora B (Homo sapiens, UniProt Q96GD4); assay: Aurora B enzyme inhibition (time-resolved fluorescence, histone H3 peptide); assay type: biochemical; conditions: 1 mM ATP
T1 construct: Active Aurora B enzyme (recombinant residues 1-344)
Procedure, shortened: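 Recombinant Aurora B (residues 1-344) with GST-INCENP phosphorylated biotinylated histone H3 (1-21) peptide at 1 mM ATP in HEPES pH 7.4 with MgCl2, orthovanadate and Triton X-100 for 1 h. After EDTA stop, the phosphopeptide was detected by TR-FRET (Eu-cryptate anti-phospho-H3 / SA-APC, 665/615 nm ratio). IC50 from an exponential fit.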

[2] = target: T2, KDR (Homo sapiens, UniProt P35968); assay: KDR cellular assay (KDR receptor phosphorylation ELISA); assay type: cell-based; parameters: expressed in transfected cells; host or cells: 3T3 (embryonic mouse) cells; conditions: KDR transfected 3T3 (embryonic mouse) cells, VEGF stimulated; read-out: IC50 inhibition of KDR phosphorylation
Procedure, shortened: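 KDR-transfected mouse 3T3 cells treated 20 min at 37° C with half-log compound dilutions, then stimulated 10 min with VEGF (100 ng/ml solution). Lysates captured on anti-KDR plates; phosphorylation by biotin antibody/streptavidin-HRP ELISA at 450 nm. IC50 by non-linear regression.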
Target sequence in this assay (P35968 20-1356): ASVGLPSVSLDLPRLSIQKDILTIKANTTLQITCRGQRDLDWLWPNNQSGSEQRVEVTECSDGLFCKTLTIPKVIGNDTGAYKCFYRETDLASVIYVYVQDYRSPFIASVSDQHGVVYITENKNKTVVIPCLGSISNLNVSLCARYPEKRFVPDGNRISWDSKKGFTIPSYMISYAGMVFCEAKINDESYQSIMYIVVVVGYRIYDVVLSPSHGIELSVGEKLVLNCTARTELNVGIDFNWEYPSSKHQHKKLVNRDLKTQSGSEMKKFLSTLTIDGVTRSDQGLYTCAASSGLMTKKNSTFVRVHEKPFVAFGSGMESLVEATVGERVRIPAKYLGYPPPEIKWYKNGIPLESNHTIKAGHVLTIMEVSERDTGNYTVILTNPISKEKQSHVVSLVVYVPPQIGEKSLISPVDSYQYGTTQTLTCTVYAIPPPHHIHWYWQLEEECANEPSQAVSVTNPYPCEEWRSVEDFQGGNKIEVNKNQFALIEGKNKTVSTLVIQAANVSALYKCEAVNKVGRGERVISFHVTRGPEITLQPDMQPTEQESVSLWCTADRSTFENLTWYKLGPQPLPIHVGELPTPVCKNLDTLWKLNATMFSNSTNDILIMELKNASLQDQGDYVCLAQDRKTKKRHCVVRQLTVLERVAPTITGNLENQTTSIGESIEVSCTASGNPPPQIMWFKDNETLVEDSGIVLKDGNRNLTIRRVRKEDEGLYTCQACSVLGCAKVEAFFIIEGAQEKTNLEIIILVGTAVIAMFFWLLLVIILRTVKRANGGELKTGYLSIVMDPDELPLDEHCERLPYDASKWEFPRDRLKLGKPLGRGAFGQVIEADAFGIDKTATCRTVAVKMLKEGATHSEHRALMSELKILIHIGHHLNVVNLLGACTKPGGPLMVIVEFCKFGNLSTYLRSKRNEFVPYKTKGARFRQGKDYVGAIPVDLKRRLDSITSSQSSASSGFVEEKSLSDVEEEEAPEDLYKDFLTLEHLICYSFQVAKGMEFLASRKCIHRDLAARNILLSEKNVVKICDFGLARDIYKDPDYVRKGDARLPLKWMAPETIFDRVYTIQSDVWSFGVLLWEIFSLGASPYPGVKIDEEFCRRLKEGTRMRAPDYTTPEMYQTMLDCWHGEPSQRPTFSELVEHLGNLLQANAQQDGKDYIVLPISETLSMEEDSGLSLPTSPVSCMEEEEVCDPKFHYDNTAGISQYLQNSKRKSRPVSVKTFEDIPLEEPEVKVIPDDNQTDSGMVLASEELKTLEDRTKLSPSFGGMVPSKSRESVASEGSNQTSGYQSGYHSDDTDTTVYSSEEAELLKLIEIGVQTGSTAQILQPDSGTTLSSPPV

[3] = target: T2, KDR; assay: KDR HTRF in vitro kinase assay; assay type: biochemical; parameters: purified enzyme (His6-KDR 789-1354, MW 63 kD); His6 (N); conditions: 1 mM ATP; read-out: KDR enzyme inhibition data (Ki)
Procedure, shortened: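 His6-KDR 789-1354 (7 ng/well) with 0.5 μM biotinylated peptide substrate and 1 mM ATP in HEPES pH 7.1, MgCl2/MnCl2, 60 min at room temperature. EDTA-quenched, detected by streptavidin-XL-665 plus Eu-kryptate anti-phosphotyrosine HTRF after 3 h; IC50 from 620/665 nm ratio.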
Target sequence in this assay (P35968 789-1354): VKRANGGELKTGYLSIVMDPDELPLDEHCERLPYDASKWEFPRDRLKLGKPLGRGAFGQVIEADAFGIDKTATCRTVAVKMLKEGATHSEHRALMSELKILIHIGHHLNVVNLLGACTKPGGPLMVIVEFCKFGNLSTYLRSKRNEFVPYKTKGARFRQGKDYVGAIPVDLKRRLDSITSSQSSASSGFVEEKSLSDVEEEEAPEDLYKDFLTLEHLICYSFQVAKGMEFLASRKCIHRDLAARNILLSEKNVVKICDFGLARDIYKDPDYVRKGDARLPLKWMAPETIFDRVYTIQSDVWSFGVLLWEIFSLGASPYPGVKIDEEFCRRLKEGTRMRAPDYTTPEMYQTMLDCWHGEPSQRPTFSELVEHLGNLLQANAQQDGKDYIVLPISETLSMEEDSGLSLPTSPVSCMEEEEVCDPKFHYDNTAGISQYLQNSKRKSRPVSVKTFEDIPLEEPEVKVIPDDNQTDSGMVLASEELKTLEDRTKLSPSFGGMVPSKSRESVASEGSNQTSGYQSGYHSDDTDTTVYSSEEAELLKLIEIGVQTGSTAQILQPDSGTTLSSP

T1 sequence (Q96GD4 whole entry, the tested form may be a part): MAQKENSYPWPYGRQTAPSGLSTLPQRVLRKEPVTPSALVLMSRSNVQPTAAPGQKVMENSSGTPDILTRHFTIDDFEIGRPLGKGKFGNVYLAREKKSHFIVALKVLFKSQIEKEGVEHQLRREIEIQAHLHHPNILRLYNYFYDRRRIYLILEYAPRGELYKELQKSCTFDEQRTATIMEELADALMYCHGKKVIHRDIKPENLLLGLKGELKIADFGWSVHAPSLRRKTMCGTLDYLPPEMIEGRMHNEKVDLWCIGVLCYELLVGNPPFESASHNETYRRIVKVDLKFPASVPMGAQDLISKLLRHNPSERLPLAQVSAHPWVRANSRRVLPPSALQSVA
T1 sequence (Q9NQS7 826-918 partner limits assumed): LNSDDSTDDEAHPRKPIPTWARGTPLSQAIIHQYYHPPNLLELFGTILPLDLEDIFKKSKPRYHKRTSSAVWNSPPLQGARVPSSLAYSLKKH

Ki [1]: < 100 nM
IC50 [2]: 100 to 1000 nM
Ki [3]: < 100 nM
Substance: (1S,2R)-2-{[5-chloro-2-({1-[2-(morpholin-4-yl)ethyl]-1H-pyrazol-4-yl}amino)pyrimidin-4-yl]amino}cyclopentanecarboxamide and (1R,2S)-2-{[5-chloro-2-({1-[2-(morpholin-4-yl)ethyl]-1H-pyrazol-4-yl}amino)pyrimidin-4-yl]amino}cyclopentanecarboxamide [Example 137]
